Measurements: patent US20050192256A1, “Methods of using vitamin D compounds in the treatment of patients undergoing hemodialysis” (priority 2003, published 2005)

Columns and labels:
[1] = Vitamin D therapy and K/DOQI guidelines on hospitalization outcomes in hemodialysis patients (cohort, negative binomial regression); assay type: in vivo, human; settings: for annual hospitalizations (HOSP) and hospital days (DAYS), NoD group compared with treated group: NoD (N=3007) vs P (N=1318) or C (N=1432), therapy at least 180 days
Excerpt: An examination was made of the relationship between Vitamin D therapy and K/DOQI guidelines on hospitalization outcomes, as a surrogate for morbidity, in hemodialysis (HD) patients. The cohort consisted of U.S. patients who were new to HD during the period from January 1999 to December 2001 and who received paricalcitol (P), calcitriol (C) or no vitamin D (NoD) therapy for at least 180 days. To allow for patients to be stabilized after initiation to Vitamin D or NoD therapy, baseline laboratory values were defined over the initial 90-180 days of the observation period; mean values over this baseline period were assessed relative to K/DOQI guidelines. Patients with baseline laboratory measurements within K/DOQI guidelines served as reference groups. An interaction term was created to examine the relationship between Vitamin D therapy and the K/DOQI baseline assessment. Outcomes were defined by annual hospitalizations (HOSP) and hospital days (DAYS). Analysis was performed using negative binomial regression modeling.

[2] = Association of Vitamin D therapy, serum PTH and CaxP product quintiles with hospitalization outcomes in hemodialysis patients (cohort, negative binomial regression); assay type: in vivo, human; settings: for association between quintiles of PTH, CaxP and hospital outcomes (morbidity): interaction of laboratory quintiles and Vitamin D therapy
Excerpt: Elevated PTH and CaxP levels have been considered risk factors for increased mortality and morbidity (M&M) in HD patients. […] To date, the relationship between M&M, PTH, CaxP product and the impact of Vitamin D therapy, however, has not been addressed. Thus, by quintiles, an analysis was made of the baseline distribution of serum iPTH, and CaxP product levels in HD patients who received paricalcitol (P), calcitriol (C) or no Vitamin D (NoD) therapy in regard to their relationship with hospitalization outcomes as defined by hospitalizations per year (HOSP) and hospital days per year (DAYS). The cohort consisted of 11,340 adult patients new to HD between January 1999 and November 2001; there were 2,316 patients treated with P; 2,299 patients treated with C and 6,725 patients NoD.

[3] = recent data; cited from earlier work

| Compound | difference in outcomes for patients within K/DOQI guidelines compared to those outside of guidelines ([1]; HOSP and DAYS) | annual hospitalizations (HOSP) and hospital days (DAYS), NoD group compared with treated group ([1]; p<0.05) | hospitalization outcomes, ranking among groups ([1]; P vs C vs NoD) | fewer DAYS (hospital days per year) compared to C group ([2]; 2,316 patients P vs 2,299 C, p=0.0036) | fewer DAYS (hospital days per year) compared to NoD group ([2]; 2,316 patients P vs 6,725 NoD, p<0.0001) | association between quintiles of PTH, CaxP and hospital outcomes (morbidity) [2] | survival in HD patients [3] | increase in DAYS for patients outside of K/DOQI guidelines for Phos ([1]; interaction assessment, reference: patients within K/DOQI guidelines, p<0.05) | DAYS in the 2nd quintile of CaxP compared to the reference group (3rd quintile) ([2]; human, in vivo) |
| --- | --- | --- | --- | --- | --- | --- | --- | --- | --- |
| C[C@H](/C=C/[C@H](C)C(C)(C)O)[C@H]1CC[C@H]2/C(=C/C=C3C[C@@H](O)C[C@H](O)C3)CCC[C@]12C [paricalcitol, 19-nor-1α,3β,25-trihydroxy-9,10-secoergosta-5(Z); 7(E),22(E)-triene] | no significant difference | significantly more HOSP and DAYS | fewest hospitalization outcomes | 72% | 90% | not associated with morbidity | associated with survival benefit | – | – |
| C=C1/C(=C\C=C2/CCC[C@]3(C)[C@@H]([C@H](C)CCCC(C)(C)O)CC[C@@H]23)C[C@@H](O)C[C@@H]1O [calcitriol, 1α,25-dihydroxy-vitamin D3] | – | significantly more HOSP and DAYS | – | – | – | no significant associations | – | 40% | significantly fewer DAYS |
